# Measured values as given in patent US20260232767A1, “INTERLEUKIN-23 RECEPTOR ANTAGONIST PEPTIDES FOR USE IN THE TREATMENT OF PSORIASIS” (Janssen Pharmaceutica NV, priority 2023, published 2026).
# System: subjects with moderate-to-severe plaque psoriasis
# Assay: Hematology and chemistry laboratory values by CTCAE grade
# Assay type: in vivo, human
# Conditions: through Week 56
# From the text: The proportion of participants who discontinued study intervention due to one or more AEs was low (n=4). All events were singular in nature with no apparent dose-dependent increase (Table 48 and Table 52). The number of participants with abnormal hematology and chemistry laboratory values with CTCAE toxicity grade≥3 were low through the end of the study (Table 43 through Table 46). There was no apparent dose-dependent increase in laboratory abnormality occurrences.
# [1] = Placebo → 100 mg QD after crossover
smiles,measurement,setting,value
"CC(=O)NCCCC[C@@H]1NC(=O)[C@H](Cc2c[nH]c3c(C)cccc23)NC(=O)[C@H]([C@@H](C)O)NC(=O)[C@H](CC(N)=O)NC(=O)[C@@H](NC(C)=O)C(C)(C)SSC(C)(C)[C@@H](C(=O)N[C@@H](Cc2ccc(OCCN)cc2)C(=O)N[C@@H](Cc2ccc3ccccc3c2)C(=O)NC2(C(=O)N[C@@H](CCC(=O)O)C(=O)N[C@@H](CC(N)=O)C(=O)N[C@@H](Cc3cccnc3)C(=O)N(C)CC(N)=O)CCOCC2)NC1=O [IL-23 receptor antagonist peptide, Ac-[Pen]*-N-T-[W(7-Me)]-[Lys(Ac)]-[Pen]*-Phe[4-(2-aminoethoxy)]-[2-Nal]-[THP]-E-N-[3-Pal]-Sarc-NH2 (*[Pen]-[Pen]* formdisulfidebond)]",WBC (×10^9/L) (increased): subjects with Grade 2,100 mg QD,0
same,WBC (×10^9/L) (increased): subjects with Grade 3,100 mg QD,0
same,WBC (×10^9/L) (increased): subjects with Grade 4,100 mg QD,0
same,WBC (×10^9/L) (increased): subjects with postbaseline maximum toxicity grade >0,100 mg QD,0
same,Hemoglobin (g/L) (decreased): subjects with Grade 3,Combined Formula (I) regimens,0
same,Hemoglobin (g/L) (decreased): subjects with Grade 4,Combined Formula (I) regimens,0
same,Hemoglobin (g/L) (increased): subjects with Grade 2,Combined Formula (I) regimens,0
same,Hemoglobin (g/L) (increased): subjects with Grade 3,Combined Formula (I) regimens,0
same,Hemoglobin (g/L) (increased): subjects with Grade 4,Combined Formula (I) regimens,0
same,Lymphocytes (×10^9/L) (decreased): subjects with Grade 3,Combined Formula (I) regimens,0
same,Lymphocytes (×10^9/L) (decreased): subjects with Grade 4,Combined Formula (I) regimens,0
same,Lymphocytes (×10^9/L) (increased): subjects with Grade 1,Combined Formula (I) regimens,0
same,Lymphocytes (×10^9/L) (increased): subjects with Grade 3,Combined Formula (I) regimens,0
same,Lymphocytes (×10^9/L) (increased): subjects with Grade 4,Combined Formula (I) regimens,0
same,Neutrophils (×10^9/L) (decreased): subjects with Grade 3,Combined Formula (I) regimens,0
same,Neutrophils (×10^9/L) (decreased): subjects with Grade 4,Combined Formula (I) regimens,0
same,Platelets (×10^9/L) (decreased): subjects with Grade 2,Combined Formula (I) regimens,0
same,Platelets (×10^9/L) (decreased): subjects with Grade 3,Combined Formula (I) regimens,0
same,Platelets (×10^9/L) (decreased): subjects with Grade 4,Combined Formula (I) regimens,0
same,WBC (×10^9/L) (decreased): subjects with Grade 3,Combined Formula (I) regimens,0
same,WBC (×10^9/L) (decreased): subjects with Grade 4,Combined Formula (I) regimens,0
same,WBC (×10^9/L) (increased): subjects with Grade 1,Combined Formula (I) regimens,0
same,WBC (×10^9/L) (increased): subjects with Grade 2,Combined Formula (I) regimens,0
same,WBC (×10^9/L) (increased): subjects with Grade 3,Combined Formula (I) regimens,0
same,WBC (×10^9/L) (increased): subjects with Grade 4,Combined Formula (I) regimens,0
same,WBC (×10^9/L) (increased): subjects with postbaseline maximum toxicity grade >0,Combined Formula (I) regimens,0
same,Alanine Aminotransferase (increased): Subjects with Grade 4,Combined,0
same,Albumin (decreased): Subjects with Grade 1,Combined,0
same,Albumin (decreased): Subjects with Grade 2,Combined,0
same,Albumin (decreased): Subjects with Grade 3,Combined,0
same,Albumin (decreased): Subjects with Grade 4,Combined,0
same,Albumin (decreased): Subjects with postbaseline maximum toxicity grade >0,Combined,0
same,Alkaline Phosphatase (increased): Subjects with Grade 2,Combined,0
same,Alkaline Phosphatase (increased): Subjects with Grade 3,Combined,0
same,Alkaline Phosphatase (increased): Subjects with Grade 4,Combined,0
same,Aspartate Aminotransferase (increased): Subjects with Grade 4,Combined,0
same,Calcium corrected (decreased): Subjects with Grade 3,Combined,0
same,Calcium corrected (decreased): Subjects with Grade 4,Combined,0
same,Calcium corrected (increased): Subjects with Grade 2,Combined,0
same,Calcium corrected (increased): Subjects with Grade 3,Combined,0
same,Calcium corrected (increased): Subjects with Grade 4,Combined,0
same,Cholesterol (increased): Subjects with Grade 3,Combined,0
same,Cholesterol (increased): Subjects with Grade 4,Combined,0
same,Creatinine (increased): Subjects with Grade 3,Combined,0
same,Creatinine (increased): Subjects with Grade 4,Combined,0
same,Gamma Glutamyl Transferase (increased): Subjects with Grade 3,Combined,0
same,Gamma Glutamyl Transferase (increased): Subjects with Grade 4,Combined,0
same,Glucose (decreased): Subjects with Grade 3,Combined,0
same,Glucose (decreased): Subjects with Grade 4,Combined,0
same,Magnesium (decreased): Subjects with Grade 2,Combined,0
same,Magnesium (decreased): Subjects with Grade 3,Combined,0
same,Magnesium (decreased): Subjects with Grade 4,Combined,0
same,Magnesium (increased): Subjects with Grade 2,Combined,0
same,Magnesium (increased): Subjects with Grade 3,Combined,0
same,Magnesium (increased): Subjects with Grade 4,Combined,0
same,Potassium (decreased): Subjects with Grade 1,Combined,0
same,Potassium (decreased): Subjects with Grade 3,Combined,0
same,Potassium (decreased): Subjects with Grade 4,Combined,0
same,Potassium (increased): Subjects with Grade 4,Combined,0
same,Sodium (decreased): Subjects with Grade 2,Combined,0
same,Sodium (decreased): Subjects with Grade 3,Combined,0
same,Sodium (decreased): Subjects with Grade 4,Combined,0
same,Sodium (increased): Subjects with Grade 2,Combined,0
same,Sodium (increased): Subjects with Grade 3,Combined,0
same,Sodium (increased): Subjects with Grade 4,Combined,0
same,Total Bilirubin (increased): Subjects with Grade 3,Combined,0
same,Total Bilirubin (increased): Subjects with Grade 4,Combined,0
same,Hemoglobin (g/L) (decreased): subjects with Grade 2,[1],0
same,Hemoglobin (g/L) (decreased): subjects with Grade 3,[1],0
same,Hemoglobin (g/L) (decreased): subjects with Grade 4,[1],0
same,Hemoglobin (g/L) (increased): subjects with Grade 2,[1],0
same,Hemoglobin (g/L) (increased): subjects with Grade 3,[1],0
same,Hemoglobin (g/L) (increased): subjects with Grade 4,[1],0
same,Lymphocytes (×10^9/L) (decreased): subjects with Grade 1,[1],0
same,Lymphocytes (×10^9/L) (decreased): subjects with Grade 3,[1],0
same,Lymphocytes (×10^9/L) (decreased): subjects with Grade 4,[1],0
same,Lymphocytes (×10^9/L) (increased): subjects with Grade 1,[1],0
same,Lymphocytes (×10^9/L) (increased): subjects with Grade 2,[1],0
same,Lymphocytes (×10^9/L) (increased): subjects with Grade 3,[1],0
same,Lymphocytes (×10^9/L) (increased): subjects with Grade 4,[1],0
same,Lymphocytes (×10^9/L) (increased): subjects with postbaseline maximum toxicity grade >0,[1],0
same,Platelets (×10^9/L) (decreased): subjects with Grade 2,[1],0
same,Platelets (×10^9/L) (decreased): subjects with Grade 3,[1],0
same,Platelets (×10^9/L) (decreased): subjects with Grade 4,[1],0
same,WBC (×10^9/L) (decreased): subjects with Grade 2,[1],0
same,WBC (×10^9/L) (decreased): subjects with Grade 3,[1],0
same,WBC (×10^9/L) (decreased): subjects with Grade 4,[1],0
same,WBC (×10^9/L) (increased): subjects with Grade 1,[1],0
same,WBC (×10^9/L) (increased): subjects with Grade 2,[1],0
same,WBC (×10^9/L) (increased): subjects with Grade 3,[1],0
same,WBC (×10^9/L) (increased): subjects with Grade 4,[1],0
same,WBC (×10^9/L) (increased): subjects with postbaseline maximum toxicity grade >0,[1],0
same,Alanine Aminotransferase (increased): Subjects with Grade 1,Placebo → 100 mg QD,10
same,Alanine Aminotransferase (increased): Subjects with Grade 3,Placebo → 100 mg QD,0
same,Alanine Aminotransferase (increased): Subjects with Grade 4,Placebo → 100 mg QD,0
same,Albumin (decreased): Subjects with Grade 1,Placebo → 100 mg QD,0
same,Albumin (decreased): Subjects with Grade 2,Placebo → 100 mg QD,0
same,Albumin (decreased): Subjects with Grade 3,Placebo → 100 mg QD,0
same,Albumin (decreased): Subjects with Grade 4,Placebo → 100 mg QD,0
same,Albumin (decreased): Subjects with postbaseline maximum toxicity grade >0,Placebo → 100 mg QD,0
same,Alkaline Phosphatase (increased): Subjects with Grade 2,Placebo → 100 mg QD,0
same,Alkaline Phosphatase (increased): Subjects with Grade 3,Placebo → 100 mg QD,0
same,Alkaline Phosphatase (increased): Subjects with Grade 4,Placebo → 100 mg QD,0
same,Aspartate Aminotransferase (increased): Subjects with Grade 4,Placebo → 100 mg QD,0
same,Aspartate Aminotransferase (increased): Subjects with postbaseline maximum toxicity grade >0,Placebo → 100 mg QD,9
same,Calcium corrected (decreased): Subjects with Grade 3,Placebo → 100 mg QD,0
same,Calcium corrected (decreased): Subjects with Grade 4,Placebo → 100 mg QD,0
same,Calcium corrected (increased): Subjects with Grade 1,Placebo → 100 mg QD,0
same,Calcium corrected (increased): Subjects with Grade 2,Placebo → 100 mg QD,0
same,Calcium corrected (increased): Subjects with Grade 3,Placebo → 100 mg QD,0
same,Calcium corrected (increased): Subjects with Grade 4,Placebo → 100 mg QD,0
same,Calcium corrected (increased): Subjects with postbaseline maximum toxicity grade >0,Placebo → 100 mg QD,0
same,Cholesterol (increased): Subjects with Grade 1,Placebo → 100 mg QD,0
same,Cholesterol (increased): Subjects with Grade 2,Placebo → 100 mg QD,0
same,Cholesterol (increased): Subjects with Grade 3,Placebo → 100 mg QD,0
same,Cholesterol (increased): Subjects with Grade 4,Placebo → 100 mg QD,0
same,Cholesterol (increased): Subjects with postbaseline maximum toxicity grade >0,Placebo → 100 mg QD,0
same,Creatine Kinase (increased): Subjects with Grade 2,Placebo → 100 mg QD,0
same,Creatine Kinase (increased): Subjects with Grade 4,Placebo → 100 mg QD,0
same,Creatinine (increased): Subjects with Grade 2,Placebo → 100 mg QD,0
same,Creatinine (increased): Subjects with Grade 3,Placebo → 100 mg QD,0
same,Creatinine (increased): Subjects with Grade 4,Placebo → 100 mg QD,0
same,Gamma Glutamyl Transferase (increased): Subjects with Grade 3,Placebo → 100 mg QD,0
same,Gamma Glutamyl Transferase (increased): Subjects with Grade 4,Placebo → 100 mg QD,0
same,Glucose (decreased): Subjects with Grade 3,Placebo → 100 mg QD,0
same,Glucose (decreased): Subjects with Grade 4,Placebo → 100 mg QD,0
same,Magnesium (decreased): Subjects with Grade 2,Placebo → 100 mg QD,0
same,Magnesium (decreased): Subjects with Grade 3,Placebo → 100 mg QD,0
same,Magnesium (decreased): Subjects with Grade 4,Placebo → 100 mg QD,0
same,Magnesium (increased): Subjects with Grade 2,Placebo → 100 mg QD,0
same,Magnesium (increased): Subjects with Grade 3,Placebo → 100 mg QD,0
same,Magnesium (increased): Subjects with Grade 4,Placebo → 100 mg QD,0
same,Potassium (decreased): Subjects with Grade 1,Placebo → 100 mg QD,0
same,Potassium (decreased): Subjects with Grade 3,Placebo → 100 mg QD,0
same,Potassium (decreased): Subjects with Grade 4,Placebo → 100 mg QD,0
same,Potassium (increased): Subjects with Grade 3,Placebo → 100 mg QD,0
same,Potassium (increased): Subjects with Grade 4,Placebo → 100 mg QD,0
same,Sodium (decreased): Subjects with Grade 1,Placebo → 100 mg QD,0
same,Sodium (decreased): Subjects with Grade 2,Placebo → 100 mg QD,0
same,Sodium (decreased): Subjects with Grade 3,Placebo → 100 mg QD,0
same,Sodium (decreased): Subjects with Grade 4,Placebo → 100 mg QD,0
same,Sodium (decreased): Subjects with postbaseline maximum toxicity grade >0,Placebo → 100 mg QD,0
same,Sodium (increased): Subjects with Grade 1,Placebo → 100 mg QD,0
same,Sodium (increased): Subjects with Grade 2,Placebo → 100 mg QD,0
same,Sodium (increased): Subjects with Grade 3,Placebo → 100 mg QD,0
same,Sodium (increased): Subjects with Grade 4,Placebo → 100 mg QD,0
same,Sodium (increased): Subjects with postbaseline maximum toxicity grade >0,Placebo → 100 mg QD,0
same,Total Bilirubin (increased): Subjects with Grade 2,Placebo → 100 mg QD,0
same,Total Bilirubin (increased): Subjects with Grade 3,Placebo → 100 mg QD,0
same,Total Bilirubin (increased): Subjects with Grade 4,Placebo → 100 mg QD,0
same,Triglycerides (increased): Subjects with Grade 3,Placebo → 100 mg QD,0
same,Triglycerides (increased): Subjects with Grade 4,Placebo → 100 mg QD,0
